Measurements reported in the supplement of paper PMC11821682.

Tests used:
Danio rerio embryo [1] = assay: LEL embryonic photomotor response 24 hpf
Experimental: (§1)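 ZBEscreen: dechorionated Tropical 5D zebrafish embryos were exposed from 4 hpf in 96-well plates (1% DMSO, 28 °C). All compounds were first tested at 100 µM; hits were retested at 0.005-100 µM. Morphology and mortality were scored at 120 hpf and fitted as BMC10 (3-parameter log-logistic, extra risk). The embryonic photomotor response at 24 hpf and the larval photomotor response at 120 hpf are given as lowest effect levels (K-S test, p<0.01). NA = not significant up to 100 µM; NT = not tested.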

Danio rerio embryo [2] = assay: LEL larval photomotor response dark phase 120 hpf
Experimental: as §1

Danio rerio embryo [3] = assay: BMC10 any morphological effect or mortality at 120 hpf; higher = less toxic
HL-60 = assay: Cell Health Index (toxicity pseudo-probability over dose series) (index 0-1); higher = more cytotoxic / cell stress;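 also: HL-60 cells exposed 4 h at 37 °C to ten threefold dilutions spanning 5 nM to 100 µM, multiparametric flow cytometry features scored by machine-learning classification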

Row | Structure (SMILES) | LEL embryonic photomotor response 24 hpf (Danio rerio embryo [1]) [µM] | LEL larval photomotor response dark phase 120 hpf (Danio rerio embryo [2]) [µM] | BMC10 any morphological effect or mortality (Danio rerio embryo [3]) [µM] | Cell Health Index (HL-60)
1 | O=C(O)CCCCC1CCSS1 (racemic) [DL-alpha-Lipoic acid] | > 100 | > 100 | > 100 | 0.172
2 | C[C@@]1(O)[C@H](O)[C@@H](CO)O[C@H]1n1ccc(N)nc1=O [2'-C-Methylcytidine] | > 100 | > 100 | > 100 | 0.129
3 | C=C1CC[C@@H]2[C@](C)(CO)[C@H](O)CC[C@@]2(C)[C@@H]1/C=C/C1=CCOC1=O [14-deoxy-11,12-didehydro Andrographolide] | 100 | > 100 | > 100 | 0.43
4 | O=C(O[C@@H]1Cc2c(O)cc(O)cc2O[C@H]1c1cc(O)c(O)c(O)c1)c1cc(O)c(O)c(O)c1 [(-)-Gallocatechin gallate] | > 100 | > 100 | > 100 | 0.859
5 | CCOC(=O)[C@H]1O[C@@H]1C(=O)N[C@@H](CC(C)C)C(=O)NCCC(C)C [Aloxistatin] | 33.3 | > 100 | 10.6 | 0.151
6 | Cl.Nc1c(Br)cc(Br)cc1CN[C@H]1CC[C@H](O)CC1 [Ambroxol] | 100 | > 100 | 42.5 | 0.244
7 | O=P([O-])(O)C(O)(Cc1cccnc1)P(=O)(O)O.[Na+] [Risedronic acid] |  |  | > 100 | 0.203
8 | CC(C)c1nc(CN(C)C(=O)N[C@H](C(=O)N[C@@H](Cc2ccccc2)C[C@H](O)[C@H](Cc2ccccc2)NC(=O)OCc2cncs2)C(C)C)cs1 [Ritonavir] |  |  | > 100 | 0.532
9 | Nc1ccc(-c2nc3ccc(-c4nc5cc(N)ccc5[nH]4)cc3[nH]2)cc1 [Ro 90-7501] |  |  | > 100 | 0.512
10 | COc1ccc(C2CNC(=O)C2)cc1OC1CCCC1 (configuration not stated) [Rolipram] |  |  | > 100 | 0.152
11 | C[C@@H]1O[C@@H](OC[C@H]2O[C@@H](Oc3c(-c4ccc(O)c(O)c4)oc4cc(O)cc(O)c4c3=O)[C@H](O)[C@@H](O)[C@@H]2O)[C@H](O)[C@H](O)[C@H]1O.O.O.O [Rutin] |  |  | > 100 | 0.252
12 | Cc1ccc(S(=O)(=O)OCC(=O)Nc2ccc(C(=O)O)c(O)c2)cc1 [S3I-201] |  |  | > 100 | 0.259
13 | CC(=O)SC[C@H](NC(=O)CC[C@H](N)C(=O)O)C(=O)NCC(=O)O [S-acetyl-L-Glutathione] |  |  | > 100 | 0.168
14 | O=C(CCCCCCC(=O)Nc1ccccc1)NO [SAHA] |  |  | > 100 | 0.239
15 | O=C(/C=C/c1ccccc1)NC(NC(=S)Nc1cccc2cccnc12)C(Cl)(Cl)Cl (configuration not stated) [Salubrinal] |  |  | > 100 | 0.377
16 | O=C1/C(=C/c2ccc(O)c(O)c2)COc2cc(O)ccc21 [Sappanone A] |  |  | > 100 | 0.614
17 | CC(C)(C)NC(=O)[C@@H]1C[C@@H]2CCCC[C@@H]2CN1C[C@@H](O)[C@H](Cc1ccccc1)NC(=O)[C@H](CC(N)=O)NC(=O)c1ccc2ccccc2n1.CS(=O)(=O)O [Saquinavir] |  |  | > 100 | 0.87
18 | O=c1cc(-c2ccc(O)cc2)oc2cc(O)c(O)c(O)c12 [Scutellarein] |  |  | > 100 | 0.815
19 | O=C(O)[C@H]1O[C@@H](Oc2cc3oc(-c4ccc(O)cc4)cc(=O)c3c(O)c2O)[C@H](O)[C@@H](O)[C@@H]1O [Scutellarin] |  |  | > 100 | 0.476
20 | O=C(O)c1cc(O)c2c(c1)[C@H]([C@H]1c3cc(C(=O)O)cc(O)c3C(=O)c3c(O[C@@H]4O[C@H](CO)[C@@H](O)[C@H](O)[C@H]4O)cccc31)c1cccc(O[C@@H]3O[C@H](CO)[C@@H](O)[C@H](O)[C@H]3O)c1C2=O [Sennoside A] |  |  | > 100 | 0.422
21 | CC(C)OC(=O)[C@H](C)NP(=O)(OC[C@H]1O[C@@H](n2ccc(=O)[nH]c2=O)[C@](C)(F)[C@@H]1O)Oc1ccccc1 (some centres not stated) [Sofosbuvir] |  |  | > 100 | 0.166
22 | O=C1C=CC[C@@H]2[C@H]3CCCN4CCC[C@@H](CN12)[C@@H]34 [Sophocarpine] |  |  | > 100 | 0.164
23 | OC[C@H]1O[C@@H](O[C@H]2C(O)O[C@H](CO)[C@@H](O)[C@@H]2O)[C@H](O)[C@@H](O)[C@@H]1O (some centres not stated) [Sophorose] |  |  | > 100 | 0.187
24 | Cc1cn([C@H]2C=C[C@@H](CO)O2)c(=O)[nH]c1=O [Stavudine] |  |  | > 100 | 0.204
25 | COc1ncnc(NS(=O)(=O)c2ccc(N)cc2)c1OC [Sulfadoxin] |  |  | > 100 | 0.201

Row | Structure (SMILES) | LEL embryonic photomotor response 24 hpf (Danio rerio embryo [1]) [µM] | LEL larval photomotor response dark phase 120 hpf (Danio rerio embryo [2]) [µM] | BMC10 any morphological effect or mortality (Danio rerio embryo [3]) [µM] | Cell Health Index (HL-60)
26 | CCC[C@H](NC(=O)[C@@H]1[C@H]2CCC[C@H]2CN1C(=O)[C@@H](NC(=O)[C@@H](NC(=O)c1cnccn1)C1CCCCC1)C(C)(C)C)C(=O)C(=O)NC1CC1 [Telaprevir] |  |  | > 100 | 0.402
27 | Cc1cn([C@@H]2C[C@@H](O)[C@H](CO)O2)c(=O)[nH]c1=O [Telbivudine] |  |  | > 100 | 0.153
28 | COc1cnc(-n2cnc(C)n2)c2[nH]cc(C(=O)C(=O)N3CCN(C(=O)c4ccccc4)CC3)c12 [Temsavir] |  |  | > 100 | 0.146
29 | CC(C)OC(=O)OCOP(=O)(CO[C@H](C)Cn1cnc2c(N)ncnc21)OCOC(=O)OC(C)C.O=C(O)/C=C/C(=O)O [Tenofovir Disoproxil] |  |  | > 100 | 0.212
30 | C[C@H](Cn1cnc2c(N)ncnc21)OCP(=O)(O)O [Tenofovir] |  |  | > 100 | 0.229
31 | O=c1c(O)cc([C@H]2Oc3cc(O)cc(O)c3C[C@H]2O)cc2c([C@H]3Oc4cc(O)cc(O)c4C[C@H]3O)cc(O)c(O)c12 [Theaflavin] |  |  | > 100 | 0.752
32 | Nc1nc(S)c2nc[nH]c2n1 [Thioguanine] |  |  | > 100 | 0.294
33 | C[C@@H]1CCN(C(=O)CC#N)C[C@@H]1N(C)c1ncnc2[nH]ccc12.O=C(O)CC(O)(CC(=O)O)C(=O)O [Tofacitinib] |  |  | > 100 | 0.228
34 | O=c1[nH]c(=O)n([C@H]2C[C@H](O)[C@@H](CO)O2)cc1C(F)(F)F [Trifluorothymidine] |  |  | > 100 | 0.138
35 | C[n+]1cccc(C(=O)O)c1.[Cl-] [Trigonelline] |  |  | > 100 | 0.15
36 | O=C(CCc1ccc(O)cc1)c1c(O)cc(O[C@@H]2O[C@H](CO)[C@@H](O)[C@H](O)[C@H]2O)cc1O [Trilobatin] |  |  | > 100 | 0.183
37 | COc1cc(C(=O)NCc2ccc(OCCN(C)C)cc2)cc(OC)c1OC.Cl [Trimethobenzamide] |  |  | > 100 | 0.194
38 | Cc1ccc2c(=O)c3cccc(CC(=O)O)c3oc2c1C [Vadimezan] |  |  | > 100 | 0.169
39 | CC(C)[C@H](N)C(=O)OCCOCn1cnc2c(=O)nc(N)[nH]c21.Cl [Valacyclovir] |  |  | > 100 | 0.145
40 | CC(C)[C@H](N)C(=O)OCC(CO)OCn1cnc2c(=O)nc(N)[nH]c21.Cl (some centres not stated) [Valganciclovir] |  |  | > 100 | 0.247
41 | CCCC(CCC)C(=O)O [Valproic acid] |  |  | > 100 | 0.188
42 | COC[C@H]1C[C@@H](c2ncc(-c3ccc4c(c3)COc3cc5c(ccc6nc([C@@H]7CC[C@H](C)N7C(=O)[C@@H](NC(=O)OC)C(C)C)[nH]c65)cc3-4)[nH]2)N(C(=O)[C@H](NC(=O)OC)c2ccccc2)C1 [Velpatasvir] |  |  | > 100 | 0.286
43 | C[C@@H]1O[C@@H](O[C@@H]2[C@@H](O)[C@H](OCCc3ccc(O)c(O)c3)O[C@H](CO)[C@H]2OC(=O)/C=C/c2ccc(O)c(O)c2)[C@H](O)[C@H](O)[C@H]1O [Verbascoside] |  |  | > 100 | 0.843
44 | Nc1ncnc2c1ncn2[C@@H]1O[C@H](CO)[C@@H](O)[C@@H]1O [Vidarabine] |  |  | > 100 | 0.234
45 | CCOC(=O)CN[C@@H](C(=O)N1CC[C@H]1C(=O)NCc1ccc(C(=N)NO)cc1)C1CCCCC1 [Ximelagatran] |  |  | > 100 | 0.193
46 | COC(=O)CC[C@H](NC(=O)[C@H](C)NC(=O)OCc1ccccc1)C(=O)N[C@H](C(=O)N[C@@H](CC(=O)OC)C(=O)CF)C(C)C [Z-AEVD-FMK] |  |  | > 100 | 0.179
47 | O=C(O)C[C@H](NC(=O)OCc1ccccc1)C(=O)COC(=O)c1c(Cl)cccc1Cl [Z-Asp-CH2-DCB] |  |  | > 100 | 0.212
48 | Nc1ccn([C@H]2CC[C@@H](CO)O2)c(=O)n1 [Zalcitabine] |  |  | > 100 | 0.193
49 | CC(=O)N[C@H]1[C@H]([C@H](O)[C@H](O)CO)OC(C(=O)O)=C[C@@H]1NC(=N)N [Zanamivir] |  |  | > 100 | 0.22
50 | Cc1cn([C@H]2C[C@H](N=[N+]=[N-])[C@@H](CO)O2)c(=O)[nH]c1=O [Zidovudine] |  |  | > 100 | 0.17
